Test results taken from patent publication US20100267561A1, “HERBICIDAL PYRIDAZINONE DERIVATIVES” (priority 2007, published 2010).
Where two headings read alike, the source gives them in different places.

Key:
Test in all cases: Test B pre-/postemergence plant response
Format in all cases: in vivo
[1] = system: wheat (Triticum aestivum); settings: for plant injury at 31 g/ha / plant injury at 62 g/ha: Triticum aestivum, read-out: Plant response rating, Wheat; for plant injury at 31 g/ha: 31 g ai/ha; for plant injury at 62 g/ha: 62 g ai/ha, 100 complete control
Outline: (§1)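 Visual scoring from 0 (no effect) to 100 (complete control) against untreated controls was done 13 to 15 days after greenhouse treatment. Chemicals were formulated in a surfactant-containing non-phytotoxic solvent and applied to soil preemergence or to 1- to 4-leaf (2-18 cm) plants postemergence.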

[2] = system: bermudagrass (Cynodon dactylon); settings: for pest or weed control at 31 g/ha: 31 g ai/ha; for pest or weed control at 62 g/ha: 62 g ai/ha, 100 complete control
Outline: as §1

[3] = system: morningglory (Ipomoea coccinea); settings: for pest or weed control at 31 g/ha / pest or weed control at 62 g/ha: Ipomoea, read-out: Plant response rating, Morningglory; for pest or weed control at 31 g/ha: 31 g ai/ha; for pest or weed control at 62 g/ha: 62 g ai/ha, 100 complete control
Outline: as §1

[4] = system: lambsquarters (Chenopodium album); settings: for pest or weed control at 31 g/ha / pest or weed control at 62 g/ha: Chenopodium album, read-out: Plant response rating, Lambsquarters; for pest or weed control at 31 g/ha: 31 g ai/ha; for pest or weed control at 62 g/ha: 62 g ai/ha, 100 complete control
Outline: as §1

soybean (Glycine max) = settings: for plant injury at 31 g/ha / plant injury at 62 g/ha: Glycine max, read-out: Plant response rating, Soybean; for plant injury at 31 g/ha: 31 g ai/ha; for plant injury at 62 g/ha: 62 g ai/ha, 100 complete control
Outline: as §1

[5] = system: velvetleaf (Abutilon theophrasti); settings: for pest or weed control at 31 g/ha / pest or weed control at 62 g/ha: Abutilon theophrasti, read-out: Plant response rating, Velvetleaf; for pest or weed control at 31 g/ha: 31 g ai/ha; for pest or weed control at 62 g/ha: 62 g ai/ha, 100 complete control
Outline: as §1

[6] = system: cocklebur (Xanthium strumarium); settings: for pest or weed control at 31 g/ha: 31 g ai/ha; for pest or weed control at 62 g/ha: 62 g ai/ha, 100 complete control
Outline: as §1

[7] = system: surinam grass (Brachiaria decumbens); settings: for pest or weed control at 31 g/ha / pest or weed control at 62 g/ha: Urochloa decumbens, read-out: Plant response rating, Surinam Grass; for pest or weed control at 31 g/ha: 31 g ai/ha; for pest or weed control at 62 g/ha: 62 g ai/ha, 100 complete control
Outline: as §1

[8] = system: johnsongrass (Sorghum halepense); settings: for pest or weed control at 31 g/ha / pest or weed control at 62 g/ha: Sorghum halepense, read-out: Plant response rating, Johnsongrass; for pest or weed control at 31 g/ha: 31 g ai/ha; for pest or weed control at 62 g/ha: 62 g ai/ha, 100 complete control
Outline: as §1

[9] = system: common ragweed (Ambrosia elation); settings: for pest or weed control at 31 g/ha / pest or weed control at 62 g/ha: Ambrosia, read-out: Plant response rating, Ragweed; for pest or weed control at 31 g/ha: 31 g ai/ha; for pest or weed control at 62 g/ha: 62 g ai/ha, 100 complete control
Outline: as §1

[10] = system: goosegrass (Eleusine indica); settings: for pest or weed control at 31 g/ha / pest or weed control at 62 g/ha: Eleusine indica, read-out: Plant response rating, Goosegrass; for pest or weed control at 31 g/ha: 31 g ai/ha; for pest or weed control at 62 g/ha: 62 g ai/ha, 100 complete control
Outline: as §1

[11] = system: common (oilseed) sunflower (Helianthus annuus); settings: Preemergence
Outline: as §1

[12] = system: Italian ryegrass (Lolium multiflorum); settings: for pest or weed control at 31 g/ha / pest or weed control at 62 g/ha: Lolium multiflorum, read-out: Plant response rating, Ryegrass, Italian; for pest or weed control at 31 g/ha: 31 g ai/ha; for pest or weed control at 62 g/ha: 62 g ai/ha, 100 complete control
Outline: as §1

[13] = 8 g ai/ha, postemergence, 0-100 scale
[14] = 16 g ai/ha, postemergence, 0-100 scale
[15] = Preemergence, 8 g ai/ha, scale 0 to 100 (0 no effect, 100 complete control)
[16] = Preemergence, 16 g ai/ha, scale 0 to 100
[17] = post-emergence, Postemergence, scale 0 to 100
[18] = post-emergence, Postemergence, scale 0 to 100, 0 no effect
[19] = pre-emergence, Preemergence, scale 0 to 100 (0 no effect, 100 complete control)
[20] = pre-emergence, Preemergence, 0 to 100 scale, 0 no effect

Cc1cc(-c2ccc(Br)cc2)nn1-c1c(OC(=O)C2CC2)cnn(C(=O)C2CC2)c1=O [Compound 80, 5-[3-(4-bromophenyl)-5-methyl-1H-pyrazol-1-yl]-1-(cyclopropylcarbonyl)-1,6-dihydro-6-oxo-4-pyridazinyl cyclopropanecarboxylate]
0%: pest or weed control at 31 g/ha [3, 17] | pest or weed control at 62 g/ha [3, 18] | pest or weed control at 31 g/ha [3, 19] | pest or weed control at 62 g/ha [3, 20] | pest or weed control at 31 g/ha [4, 17] | pest or weed control at 62 g/ha [4, 18] | pest or weed control at 31 g/ha [4, 19] | pest or weed control at 62 g/ha [4, 20] | plant injury at 31 g/ha (soybean (Glycine max); [19]) | plant injury at 62 g/ha (soybean (Glycine max); [20]) | pest or weed control at 31 g/ha [5, 17] | pest or weed control at 62 g/ha [5, 18] | pest or weed control at 31 g/ha [5, 19] | pest or weed control at 62 g/ha [5, 20] | pest or weed control at 16 g/ha ([6]; Xanthium strumarium, post-emergence, Postemergence, 16 g ai/ha, scale 0 to 100, read-out: Plant response rating, Cocklebur) | pest or weed control at 31 g/ha ([6]; Xanthium strumarium, post-emergence, Postemergence, scale 0 to 100, read-out: Plant response rating, Cocklebur) | pest or weed control at 62 g/ha ([6]; Xanthium strumarium, post-emergence, Postemergence, scale 0 to 100, 0 no effect, read-out: Plant response rating, Cocklebur) | pest or weed control at 31 g/ha ([6]; Xanthium strumarium, pre-emergence, Preemergence, scale 0 to 100 (0 no effect, 100 complete control), read-out: Plant response rating, Cocklebur) | pest or weed control at 62 g/ha ([6]; Xanthium strumarium, pre-emergence, Preemergence, 0 to 100 scale, 0 no effect, read-out: Plant response rating, Cocklebur) | pest or weed control at 31 g/ha [9, 17] | pest or weed control at 62 g/ha [9, 18] | pest or weed control at 31 g/ha [9, 19] | pest or weed control at 62 g/ha [9, 20] | pest or weed control at 31 g/ha ([11]; Helianthus annuus, pre-emergence, 31 g ai/ha, scale 0 to 100 (0 no effect, 100 complete control), read-out: Plant response rating, Sunflower) | pest or weed control at 62 g/ha ([11]; Helianthus annuus, pre-emergence, 62 g ai/ha, 0 to 100 scale, 0 no effect, 100 complete control, read-out: Plant response rating, Sunflower)
15%: plant injury at 31 g/ha (soybean (Glycine max); [17])
98%: plant injury at 62 g/ha [1, 18] | pest or weed control at 31 g/ha [7, 19] | pest or weed control at 62 g/ha [10, 18]
60: Johnsongrass plant response rating [8, 15]
65: Surinam Grass plant response rating [7, 16] | Johnsongrass plant response rating [8, 16]
50: Bermudagrass plant response rating [2, 15]
85: Wheat plant response rating [1, 14] | Bermudagrass plant response rating [2, 13]
20%: plant injury at 62 g/ha (soybean (Glycine max); [18])
20: Wheat plant response rating [1, 16] | Goosegrass plant response rating [10, 13] | Goosegrass plant response rating [10, 16]
85%: pest or weed control at 31 g/ha [10, 17]
90: Johnsongrass plant response rating [8, 14]
80: Ryegrass, Italian plant response rating [12, 13]
60%: plant injury at 31 g/ha [1, 19]
100: Bermudagrass plant response rating ([2]; Preemergence, 16 g ai/ha, scale 0 to 100 (0 no effect, 100 complete control)) | Surinam Grass plant response rating [7, 14]
40: Ryegrass, Italian plant response rating [12, 16]
98: Ryegrass, Italian plant response rating [12, 14]
95%: plant injury at 31 g/ha [1, 17] | plant injury at 62 g/ha [1, 20] | pest or weed control at 16 g/ha ([2]; Cynodon dactylon, post-emergence, Postemergence, 16 g ai/ha, scale 0 to 100, read-out: Plant response rating, Bermudagrass) | pest or weed control at 31 g/ha [8, 17]
100%: pest or weed control at 31 g/ha ([2]; Cynodon dactylon, post-emergence, Postemergence, scale 0 to 100, read-out: Plant response rating, Bermudagrass) | pest or weed control at 62 g/ha ([2]; Cynodon dactylon, post-emergence, Postemergence, scale 0 to 100, 0 no effect, read-out: Plant response rating, Bermudagrass) | pest or weed control at 31 g/ha ([2]; Cynodon dactylon, pre-emergence, Preemergence, scale 0 to 100 (0 no effect, 100 complete control), read-out: Plant response rating, Bermudagrass) | pest or weed control at 62 g/ha ([2]; Cynodon dactylon, pre-emergence, Preemergence, 0 to 100 scale, 0 no effect, read-out: Plant response rating, Bermudagrass) | pest or weed control at 31 g/ha [7, 17] | pest or weed control at 62 g/ha [7, 18] | pest or weed control at 62 g/ha [7, 20] | pest or weed control at 62 g/ha [8, 18] | pest or weed control at 62 g/ha [8, 20] | pest or weed control at 31 g/ha [10, 19] | pest or weed control at 62 g/ha [10, 20] | pest or weed control at 31 g/ha [12, 17] | pest or weed control at 62 g/ha [12, 18] | pest or weed control at 62 g/ha [12, 20]
75: Johnsongrass plant response rating [8, 13] | Goosegrass plant response rating [10, 14]
35: Wheat plant response rating [1, 13]
80%: pest or weed control at 31 g/ha [8, 19]
95: Surinam Grass plant response rating [7, 13]
40%: pest or weed control at 31 g/ha [12, 19]
0: Wheat plant response rating [1, 15] | Morningglory plant response rating [3, 13] | Morningglory plant response rating [3, 14] | Morningglory plant response rating [3, 15] | Morningglory plant response rating [3, 16] | Lambsquarters plant response rating [4, 13] | Lambsquarters plant response rating [4, 14] | Lambsquarters plant response rating [4, 15] | Lambsquarters plant response rating [4, 16] | Soybean plant response rating (soybean (Glycine max); [13]) | Soybean plant response rating (soybean (Glycine max); [14]) | Soybean plant response rating (soybean (Glycine max); [15]) | Soybean plant response rating (soybean (Glycine max); [16]) | Velvetleaf plant response rating [5, 13] | Velvetleaf plant response rating [5, 14] | Velvetleaf plant response rating [5, 15] | Velvetleaf plant response rating [5, 16] | Cocklebur plant response rating [6, 13] | Cocklebur plant response rating [6, 15] | Cocklebur plant response rating [6, 16] | Surinam Grass plant response rating [7, 15] | Ragweed plant response rating [9, 13] | Ragweed plant response rating [9, 14] | Ragweed plant response rating [9, 15] | Ragweed plant response rating [9, 16] | Goosegrass plant response rating [10, 15] | Sunflower plant response rating ([11]; 8 g ai/ha, scale 0 to 100 (0 no effect, 100 complete control)) | Sunflower plant response rating ([11]; 16 g ai/ha, scale 0 to 100) | Ryegrass, Italian plant response rating [12, 15]
